Assay results: patent US9328138B2 (priority 2011, dated 2016)
Values joined by “and” are separate entries in the source; they are usually repeats but may differ in a detail not shown here. Equal entries are not always repeated.

What was measured:
[1] = biological target: T1, HCV genotype 1b (BK) NS3 modified enzyme with a R155K mutation (Hepatitis C virus genotype 1b, UniProt P26663, R1181K); experiment: HCV NS3 protease time-resolved fluorescence (TRF) assay, genotype 1b R155K; assay type: biochemical; conditions: Ki 1b R155K, genotype 1b (BK) NS3 R155K; single value
T1 construct: HCV genotype 1b (BK) NS3 modified enzyme
In short: (§1)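 Steps: compound plus NS3/NS4A enzyme for 10 minutes; add peptide substrate to 25 nM; let cleavage proceed 6 hours at room temperature; read product fluorescence (340 nm excitation, 615 nm emission, delayed 400 μs). Enzyme levels gave signal/background 5-20.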

[2] = biological target: HCV NS3 protease genotype 3a (3A-1) (Hepatitis C virus genotype 3a, UniProt Q81258); experiment: HCV NS3 protease time-resolved fluorescence (TRF) assay, genotype 3a; assay type: biochemical; conditions: Ki 3a
In short: as §1

## C=C[C@@H]1C[C@]1(NC(=O)[C@@H]1C[C@@H]2CN1C(=O)[C@H](C(C)(C)C)NC(=O)O[C@@H]1CCC[C@H]1CCCCCc1c(nc3ccccc3c1OCCN1CCCC1)O2)C(=O)NS(=O)(=O)C1(COC)CC1 [Example 102, (3aR,7S,10S,12R,24aR)-7-tert-butyl-N-[(1R,2S)-2-ethenyl-1-({[1-(methoxymethyl)cyclopropyl]sulfonyl}carbamoyl)cyclopropyl]-5,8-dioxo-19-[2-(pyrrolidin-1-yl)ethoxy]-1,2,3,3a, 5,6,7,8,11,12,20,21,22,23,24,24a-hexadecahydro-10H-9,12-methanocyclopenta[18,19] [1,10,3,6]dioxadiazacyclo-nonadecino[11,12-b]quinoline-10-carboxamide]
[1]
  Ki: 0.21 nM
[2]
  Ki: 3.2 nM

## C=C[C@@H]1C[C@]1(NC(=O)[C@@H]1C[C@@H]2CN1C(=O)[C@H](C(C)(C)C)NC(=O)O[C@@H]1CCC[C@H]1CCCCCc1c(nc3ccccc3c1OCCN(C)C)O2)C(=O)NS(=O)(=O)C1(CCN2CCOCC2)CC1 [Example 103, (3aR,7S,10S,12R,24aR)-7-tert-butyl-19-[2-(dimethylamino)ethoxy]-N-{(1R,2S)-2-ethenyl-1-[({1-[2-(morpholin-4-yl)ethyl]cyclopropyl}sulfonyl)carbamoyl]cyclopropyl}-5,8-dioxo-1,2,3,3a,5,6,7,8,11,12,20,21, 22,23,24,24a-hexadeca hydro-10H-9,12-methanocyclo-penta[18,19][1,10,3,6] dioxadiazacyclononadecino [11,12-b]quinoline-10-carboxamide]
[1]
  Ki: 0.77 nM and 0.13 nM
[2]
  Ki: 8.5 nM and 1.1 nM

## C=C[C@@H]1C[C@]1(NC(=O)[C@@H]1C[C@@H]2CN1C(=O)[C@H](C(C)(C)C)NC(=O)O[C@@H]1CCC[C@H]1CCCCCc1c(nc3ccccc3c1OCCN1CCOCC1)O2)C(=O)NS(=O)(=O)C1CC1 [Example 104, (3aR,7S,10S,12R,24aR)-7-tert-butyl-N-{(1R,2S)-1-[(cyclopropylsulfonyl)carbamoyl]-2-ethenylcyclopropyl}-19-[2-(morpholin-4-yl)ethoxy]-5,8-dioxo-1,2,3,3a,5,6,7,8,11,12,20, 21,22,23,24,24a-hexadecahydro-10H-9,12-methanocyclopenta[18,19] [1,10,3,6]dioxadiaza-cyclononadecino[11,12-b] quinoline-10-carboxamide]
[1]
  Ki: 1.3 nM
[2]
  Ki: 26 nM

## C=C[C@@H]1C[C@]1(NC(=O)[C@@H]1C[C@@H]2CN1C(=O)[C@H](C(C)(C)C)NC(=O)O[C@@H]1CCC[C@H]1CCCCCc1c(nc3ccccc3c1OCCN1CCOCC1)O2)C(=O)NS(=O)(=O)C1(C)CC1 [Example 105, (3aR,7S,10S,12R,24aR)-7-tert-butyl-N-[(1R,2S)-2-ethenyl-1-{[(1-methyl-cyclopropyl)sulfonyl]carbamoyl}cyclopropyl]-19-[2-(morpholin-4-yl)ethoxy]-5,8-dioxo-1,2,3,3a, 5,6,7,8,11,12,20,21, 22,23,24,24a-hexadeca hydro-10H-9,12-methanocyclopenta [18,19][1,10,3,6]dioxadiazacyclo nonadecino[11,12-b]quinoline-10-carboxamide]
[1]
  Ki: 0.43 nM
[2]
  Ki: 14 nM

## C=C[C@@H]1C[C@]1(NC(=O)[C@@H]1C[C@@H]2CN1C(=O)[C@H](C(C)(C)C)NC(=O)O[C@@H]1CCC[C@H]1CCCCCc1c(nc3ccccc3c1OCCN1CCOCC1)O2)C(=O)NS(=O)(=O)N(C)C [Example 106, (3aR,7S,10S,12R,24aR)-7-tert-butyl-N-{(1R,2S)-1-[(dimethylsulfamoyl)carbamoyl]-2-ethenylcyclopropyl}-19-[2-(morpholin-4-yl)ethoxy]-5,8-dioxo-1,2,3,3a,5,6,7,8,11,12,20,21,22,23,24,24a-hexadecahydro-10H-9,12-methanocyclopenta[18,19][1,10,3,6]dioxadiazacyclononadecino[11,12-b]quinoline-10-carboxamide]
[1]
  Ki: 0.78 nM
[2]
  Ki: 17 nM

## C=C[C@@H]1C[C@]1(NC(=O)[C@@H]1C[C@@H]2CN1C(=O)[C@H](C(C)(C)C)NC(=O)O[C@@H]1CCC[C@H]1CCCCCc1c(nc3ccccc3c1OCCN1CCOCC1)O2)C(=O)NS(=O)(=O)N1CCC1 [Example 107, (3aR,7S,10S,12R,24aR)-N-{(1R,2S)-1-[(azetidin-1-ylsulfonyl)carbamoyl]-2-ethenylcyclopropyl}-7-tert-butyl-19-[2-(morpholin-4-yl)ethoxy]-5,8-dioxo-1,2,3,3a,5,6,7,8,11,12,20,21,22,23,24,24a-hexadecahydro-10H-9,12-methanycyclopenta [18,19][1,10,3,6]dioxadiazacyclo nonadecino[11,12-b]quinoline-10-carboxamide]
[1]
  Ki: 0.74 nM
[2]
  Ki: 23 nM

## C=C[C@@H]1C[C@]1(NC(=O)[C@@H]1C[C@@H]2CN1C(=O)[C@H](C(C)(C)C)NC(=O)O[C@@H]1CCC[C@H]1CCCCCc1c(nc3ccccc3c1OCCN1CCOCC1)O2)C(=O)NS(=O)(=O)C1(C(C)(C)O)CC1 [Example 108, (3aR,7S,10S,12R,24aR)-7-tert-butyl-N-[(1R,2S)-2-ethenyl-1-({[1-(2-hydroxypropan-2-yl)cyclopropyl]sulfonyl}carbamoyl)cyclopropyl]-19-[2-(morpholin-4-yl)ethoxy]-5,8-dioxo-1,2,3,3a,5,6,7,8,11, 12,20,21,22,23,24,24a-hexadeca hydro-10H-9,12-methanocyclopenta [18,19][1,10,3,6]dioxadiaza-cyclononadecino [11,12-b]quinoline-10-carboxamide]
[1]
  Ki: 0.93 nM
[2]
  Ki: 23 nM

## C=C[C@@H]1C[C@]1(NC(=O)[C@@H]1C[C@@H]2CN1C(=O)[C@H](C(C)(C)C)NC(=O)O[C@@H]1CCC[C@H]1CCCCCc1c(nc3ccccc3c1OCCN1CCOCC1)O2)C(=O)NS(=O)(=O)N1CCCC1 [Example 109, (3aR,7S,10S,12R,24aR)-7-tert-butyl-N-{(1R,2S)-2-ethenyl-1-[(pyrrolidin-1-ylsulfonyl)carbamoyl]cyclopropyl}-19-[2-(morpholin-4-yl)ethoxy]-5,8-dioxo-1,2,3,3a,5,6,7,8,11,12,20,21,22,23,24,24a-hexadecahydro-10H-9,12-methano cyclopenta[18,19][1,10,3,6] dioxadiazacyclononadecino [11,12-b]quinoline-10-carboxamide]
[1]
  Ki: 4.1 nM
[2]
  Ki: 122 nM

## C=C[C@@H]1C[C@]1(NC(=O)[C@@H]1C[C@@H]2CN1C(=O)[C@H](C(C)(C)C)NC(=O)O[C@@H]1CCC[C@H]1CCCCCc1c(nc3ccccc3c1OCCN1CCOCC1)O2)C(=O)NS(=O)(=O)N1CCCCC1 [Example 110, (3aR,7S,10S,12R,24aR)-7-tert-butyl-N-{(1R,2S)-2-ethenyl-1-[(piperidin-1-ylsulfonyl)carbamoyl]cyclopropyl}-19-[2-(morpholin-4-yl)ethoxy]-5,8-dioxo-1,2,3,3a,5,6,7,8, 11,12,20,21,22,23,24,24a-hexadecahydro-10H-9,12-methanocyclopenta[18,19] [1,10,3,6]dioxadiaza-cyclononadecino[11,12-b] quinoline-10-carboxamide]
[1]
  Ki: 14 nM
[2]
  Ki: 488 nM

## C=C[C@@H]1C[C@]1(NC(=O)[C@@H]1C[C@@H]2CN1C(=O)[C@H](C(C)(C)C)NC(=O)O[C@@H]1CCC[C@H]1CCCCCc1c(nc3ccccc3c1OCCN1CCOCC1)O2)C(=O)NS(=O)(=O)N(C)CCOC [Example 111, (3aR,7S,10S,12R,24aR)-7-tert-butyl-N-[(1R,2S)-2-ethenyl-1-{[(2-methoxyethyl)(methyl)sulfamoyl]carbamoyl}cyclopropyl]-19-[2-(morpholin-4-yl)ethoxy]-5,8-dioxo-1,2,3,3a,5,6,7,8,11,12,20,21,22,23,24,24a-hexadecahydro-10H-9,12-methano-cyclopenta[18,19][1,10,3,6] dioxadiazacyclononadecino [11,12-b] quinoline-10-carboxamide]
[1]
  Ki: 11 nM
[2]
  Ki: 272 nM

## C=C[C@@H]1C[C@]1(NC(=O)[C@@H]1C[C@@H]2CN1C(=O)[C@H](C(C)(C)C)NC(=O)O[C@@H]1CCC[C@H]1CCCCCc1c(nc3ccccc3c1OCCN1CCOCC1)O2)C(=O)NS(=O)(=O)N1CCOCC1 [Example 112, (3aR,7S,10S,12R,24aR)-7-tert-butyl-N-{(1R,2S)-2-ethenyl-1-[(morpholin-4-ylsulfonyl)carbamoyl]cylcopropyl}-19-[2-(morpholin-4-yl)ethoxy]-5,8-dioxo-1,2,3,3a,5,6,7,8,11,12,20,21,22,23,24,24a-hexadecahydro-10H-9,12-methanocyclopenta[18,19] [1,10,3,6] dioxadiazacyclononadecino [11,12-b]quinoline-10-carboxamide]
[1]
  Ki: 24 nM
[2]
  Ki: 620 nM

## C=C[C@@H]1C[C@]1(NC(=O)[C@@H]1C[C@@H]2CN1C(=O)[C@H](C(C)(C)C)NC(=O)O[C@@H]1C[C@H]1CCCCCc1c(nc3ccccc3c1OCCN1CCOCC1)O2)C(=O)NS(=O)(=O)C1(C)CC1 [Example 113, (1aR,5S,8S,10R,22aR)-5-tert-butyl-N-[(1R,2S)-2-ethenyl-1-{[(1-methylcyclopropyl)sulfonyl]carbamoyl}cyclopropyl]-17-[2-(morpholin-4-yl)ethoxy]-3,6-dioxo-1,1a,3,4,5,6,9,10,18,19,20,21,22,22a-tetradecahydro-8H-7,10-methanocyclopropa[18,19][1,10,3,6]dioxadiazacyclononadecino[11,12-b]quinoline-8-carboxamide]
[1]
  Ki: 0.09 nM
[2]
  Ki: 1.6 nM

## C=C[C@@H]1C[C@]1(NC(=O)[C@@H]1C[C@@H]2CN1C(=O)[C@H](C(C)(C)C)NC(=O)O[C@@H]1C[C@H]1CCCCCc1c(nc3ccccc3c1OCCCN(C)C)O2)C(=O)NS(=O)(=O)C1(C)CC1 [Example 114, (1aR,5S,8S,10R,22aR)-5-tert-butyl-17-[3-(dimethylamino)propoxy]-N-[(1R,2S)-2-ethenyl-1-{[(1-methylcyclopropyl)sulfonyl]carbamoyl}cyclopropyl]-3,6-dioxo-1,1a,3,4,5,6,9,10,18,19,20,21,22,22a-tetradecahydro-8H-7,10-methanocyclo propa[18,19][1,10,3,6]dioxadiazacyclo-nonadecino[11,12-b] quinoline-8-carboxamide]
[1]
  Ki: 0.051 nM
[2]
  Ki: 0.25 nM
